Laboratory results reported in patent publication US20250154099A1, “PREPARATION METHOD OF 2-PHENYLINDOLE DERIVATIVES AND APPLICATION THEREOF” (Shihezi University, priority 2022, published 2025).
Values after ≈ are worked out from the molar mass of the structure shown. Like-named read-outs stand apart in the source and are kept apart here.

Key:
[1] = tested on: Pseudomonas aeruginosa Migula BNCC337940; test: MIC by microdilution method, sensitive Pseudomonas aeruginosa Migula; type: cell-based; settings: 24 h, read-out: MIC Pseudomonas aeruginosa Migula
Text: (§1) Used bacteria: including drug-resistant bacteria and sensitive bacteria: the used sensitive strains include Cryptococcus neoformans BNCC225501, Candida albicans BNCC186382, Aspergillus fumigatus Fresenius BNCC338385, Escherichia coli BNCC336902, Staphylococcus aureus BNCC186335 and Pseudomonas aeruginosa Migula BNCC337940, and the used drug-resistant Candida albicans is clinically isolated azole multi-drug resistant Candida albicans (CA10) donated by Qianfoshan Hospital in Shandong Province. The strains are stored in normal saline containing 20% glycerol at −80° C. for a long time. Before operation, the strains are lined and transferred to a YPD solid plate, and subjected to static culture at 30° C. for 24 h; single colonies are selected and transferred to a YPD liquid medium, and cultured at 200 rpm at 30° C. overnight; and the overnight cultured bacterial solution is inoculated into a new YPD liquid medium at a ratio of about 1:100, and subjected to shaking culture at 200 rpm at 30° C. for 4 h so that Candida albicans is in a logarithmic phase.
(§2) Culture medium: the culture medium used by the microdilution method is RPMI-1640 culture medium (Gibco).
(§3) 1.2 Operation and results of detection of minimum inhibitory concentration (MIC) of the compounds and the azole drugs by the microdilution method: the MIC of the synthesized compound and the azole drug fluconazole for the standard strains is detected by the microdilution method according to fungal sensitivity detection method (M27-A3) established by the Clinical and Laboratory Standards Institute (CLSI). Specific steps are as follows: the prepared strain concentration is adjusted to 0.5-2.5×10^3 CFU/mL by using RPMI-1640 medium. 200 μL of bacterial solution containing the highest concentration of the drug to be detected is added into the first well of a 96-well plate, and 100 μL of blank bacterial solution without drug is added into each of the other wells; the bacterial solution is diluted to a series of concentration gradients by a double gradient dilution method; the well plate is subjected to static culture at constant temperature of 35° C. for 24 h; after the absorbance (OD) of each concentration gradient at 570 nm is detected by a microplate reader and the absorbance of a blank medium is subtracted, the growth rate=dosing hole value/control hole value ×100%, the inhibition rate=1−growth rate, and the minimum concentration with the inhibition rate greater than 80% is the minimum inhibitory concentration (MIC) value.

[2] = tested on: Candida albicans BNCC186382; test: MIC by microdilution method, sensitive Candida albicans; type: cell-based; settings: Candida albicans, read-out: MIC Candida albicans
Text: as §1, §2, §3

[3] = tested on: RAW 264.7 murine macrophage cells; test: MTT cytotoxicity test on RAW 264.7; type: cell-based, mouse; settings: for IC50: Mus musculus, RAW264.7, 24 h, read-out: IC50 RAW 264.7 cell viability
Method: 3.1.1 Cell line: RAW 264.7 murine macrophage cells are donated by Shihezi University College of Pharmacy, and cultured in a 37° C. constant temperature incubator with high glucose DMEM medium (Gibco), 10% FBS serum (Gibco) and 5% CO2, and subculturing and related experimental operation are conducted when cell fusion degree reaches about 70-80%.
3.1.2 Materials and reagents: fetal bovine serum (American BI company), DMEM high glucose medium (American Gibco company), penicillin-streptomycin solution (Shanghai Solarbio company), PBS buffer solution (American Gibco company), isopropyl alcohol (analytically pure), dimethyl sulfoxide (DMSO) (Shanghai Solarbio company), and MTT powder (Shanghai Solarbio company).
Logarithmic RAW 264.7 cells are taken; cell suspension is prepared with a complete medium; the concentration of the cell suspension is adjusted to about 5×10^4 cells/mL; 200 μl of cell suspension is added into each hole of the 96-well culture plate and cultured in 5% CO2 in an incubator at 37° C. for about 24 h until the cells grow to the cell wall (at density of 50%); the medium is absorbed by a 5 ml needle tube or negative pressure; RAW 264.7 is divided into a blank group, a solvent control group and a drug administration group; in the blank group, there is no cell, and a medium, MTT and DMSO are added; in the solvent control group, cells, the same concentration of drug dissolving media, culture solution, MTT and DMSO are added; in the drug administration group, medical solution for diluting the concentration gradient with serum-free medium (containing 1% PE) is added; each concentration shall set at least 3 complex wells; 100 μl of medical solution is added into each well; and the culture plate is continued to be incubated in the incubator for 24 h. […] 100 μl of DMSO is added into each well to dissolve formazan crystals, and shaken in a shaker for 10 min at low speed to fully dissolve the crystals. The absorbance (OD) value of each well at 490 nm is determined by the microplate reader, and the cell viability is calculated by the formula: Cell viability (%)=(OD drug administration group−OD blank group)/(OD solvent control group−OD blank group)× 100%.
OD values at 490 nm are determined by the experimental method in each group, and the data are subjected to one-way analysis of variance by Graphpad prism 8.0 software.

[4] = tested on: Cryptococcus neoformans BNCC225501; test: MIC by microdilution method, sensitive Cryptococcus neoformans; type: cell-based; settings: Cryptococcus neoformans, read-out: MIC Cryptococcus neoformans
Text: as §1, §2, §3

[5] = tested on: Aspergillus fumigatus Fresenius BNCC338385; test: MIC by microdilution method, sensitive Aspergillus fumigatus Fresenius; type: cell-based; settings: Aspergillus fumigatus, 24 h, read-out: MIC Aspergillus fumigatus Fresenius
Text: as §1, §2, §3

[6] = tested on: Candida albicans CA10; test: Checkerboard microdilution assay of compound combined with fluconazole, FICI model; type: cell-based; settings: for MIC of compound combined: compound concentration in combination with fluconazole; for MIC of compound combined / MIC of azole (fluconazole) combined: inhibition rate about 80%; for FICI: compound plus fluconazole; for MIC of azole (fluconazole) combined: fluconazole concentration in combination with the compound; for MIC: Candida albicans
Method: The concentration of Candida albicans CA10 is adjusted to 0.5-2.5×10^3 CFU/mL by using RPMI-1640 medium, and the diluted bacterial solution is used for preparing a working solution of the compound and the azole drug with double concentration gradient. 50 μl of working solution of double concentration of azole drugs and working solution of double concentration of the compound to be detected at each concentration gradient are added in the longitudinal (A-H) direction and transverse (1-12) direction of the 96-well plate respectively, so that the final drug concentration range of fluconazole is 4-64 μg/ml, and the drug concentration range of the compound is 256-16 μg/ml. The 96-well plate is cultured in a constant temperature incubator at 35° C. for 24 h. The amount of viable bacteria is detected with an XTT cell proliferation assay kit, and the absorbance of each well at 490 nm wavelength is detected by the microplate reader. Growth rate=dosing well value/control well value×100%, and inhibition rate=1−growth rate. The MIC when the inhibition rate is about 80% is a break point of the combination of two drugs.
The combination data of the compound and the azole drug collected by the checkerboard microdilution assay are analyzed by an FICI (fractional inhibitory concentration index) model, and the interaction effects are evaluated.
The FICI model can be expressed by the following formula: […]
Wherein: MICA and MICB are MIC values of drug A and drug B used separately, while MICAB and MICBA are the concentrations of drug A and drug B corresponding to the minimum effective dose of the combination of drug A and drug B.

[7] = tested on: Staphylococcus aureus BNCC186335; test: MIC by microdilution method, sensitive Staphylococcus aureus; type: cell-based; settings: read-out: MIC Staphylococcus aureus
Text: as §1, §2, §3

[8] = tested on: Drug-resistant Candida albicans CA10; test: MIC by microdilution method, drug-resistant Candida albicans CA10; type: cell-based; settings: clinically isolated azole multi-drug resistant strain CA10; 24 h
Text: as §1, §2, §3

[9] = tested on: Escherichia coli BNCC336902; test: MIC by microdilution method, sensitive Escherichia coli; type: cell-based; settings: read-out: MIC Escherichia coli
Text: as §1, §2, §3

[10] = sensitive strain, 35° C., minimum concentration with inhibition rate greater than 80%
[11] = BNCC186382, sensitive strain, 35° C., 24 h, minimum concentration with inhibition rate greater than 80%
[12] = BNCC225501, sensitive strain, 35° C., 24 h, minimum concentration with inhibition rate greater than 80%
[13] = CA10, compound alone, read-out: MIC of compound used separately
[14] = BNCC186335, sensitive strain, 35° C., 24 h, minimum concentration with inhibition rate greater than 80%
[15] = BNCC336902, sensitive strain, 35° C., 24 h, minimum concentration with inhibition rate greater than 80%

| Compound | IC50 [3] | MIC of compound combined ([6]; CA10) | FICI ([6]; CA10) | MIC of azole (fluconazole) combined ([6]; CA10) | MIC80 Drug-resistant Candida albicans CA10 [8] | MIC [1, 10] | MIC [2, 11] | MIC [4, 12] | MIC [5, 10] | MIC [7, 14] | MIC [9, 15] | also measured |
| --- | --- | --- | --- | --- | --- | --- | --- | --- | --- | --- | --- | --- |
| Cc1ccccc1-c1cc2ccccc2[nH]1 [Compound 2] | 50 µM | 8 µg/mL | 0.313 | 8 µg/mL | 32 µg/mL (≈ 154 µM) | – | – | – | – | – | – | MIC [1]: 256 µg/mL (≈ 1240 µM); MIC ([2]; BNCC186382, 24 h): 4 µg/mL (≈ 19.3 µM); MIC ([4]; BNCC225501, 24 h): 2 µg/mL (≈ 9.65 µM); MIC [5]: 16 µg/mL (≈ 77.2 µM); MIC ([6]; CA10, read-out: MIC of compound used separately): 32 µg/mL; MIC ([7]; BNCC186335, 24 h): 8 µg/mL (≈ 38.6 µM); MIC ([9]; BNCC336902, 24 h): 8 µg/mL (≈ 38.6 µM) |
| Clc1ccc2cc(-c3ccccc3)[nH]c2c1 [Compound 4] | 100 µM | 16 µg/mL | 0.563 | 8 µg/mL | 32 µg/mL (≈ 141 µM) | 16 µg/mL (≈ 70.3 µM) | 16 µg/mL (≈ 70.3 µM) | 16 µg/mL (≈ 70.3 µM) | 8 µg/mL (≈ 35.1 µM) | 8 µg/mL (≈ 35.1 µM) | 16 µg/mL (≈ 70.3 µM) | toxicity to RAW 264.7 cells ([3]; 24 h): no obvious toxicity; MIC [6, 13]: 32 µg/mL; sensitivity of clinical multi-drug resistant strain CA10 to the azole drug ([6]; combination with fluconazole): can improve the sensitivity |
| Fc1ccc2cc(-c3ccccc3)[nH]c2c1 [Compound 5] | 12.5 µM | 64 µg/mL | 0.313 | 8 µg/mL | 256 µg/mL (≈ 1210 µM) | 256 µg/mL (≈ 1210 µM) | 16 µg/mL (≈ 75.7 µM) | 256 µg/mL (≈ 1210 µM) | 16 µg/mL (≈ 75.7 µM) | 32 µg/mL (≈ 151 µM) | 16 µg/mL (≈ 75.7 µM) | toxicity to RAW 264.7 cells ([3]; 24 h): no obvious toxicity; cell proliferation of RAW 264.7 ([3]; 24 h, different concentrations): may inhibit cell proliferation in a concentration-dependent way; MIC [6, 13]: > 256 µg/mL |
| COC(=O)c1ccc2[nH]c(-c3ccccc3)cc2c1 [Compound 19] | – | – | – | – | > 256 µg/mL | 32 µg/mL (≈ 127 µM) | 8 µg/mL (≈ 31.8 µM) | 256 µg/mL (≈ 1020 µM) | 16 µg/mL (≈ 63.7 µM) | 8 µg/mL (≈ 31.8 µM) | 256 µg/mL (≈ 1020 µM) | – |
| COC(=O)c1ccc2cc(-c3ccccc3)[nH]c2c1 [Compound 20] | – | – | – | – | > 256 µg/mL | 8 µg/mL (≈ 31.8 µM) | 32 µg/mL (≈ 127 µM) | 256 µg/mL (≈ 1020 µM) | 256 µg/mL (≈ 1020 µM) | 32 µg/mL (≈ 127 µM) | 256 µg/mL (≈ 1020 µM) | – |
| Clc1ccc2[nH]c(-c3ccccc3)cc2c1 [Compound 21] | – | – | – | – | > 256 µg/mL | > 256 µg/mL | > 256 µg/mL | > 256 µg/mL | > 256 µg/mL | > 256 µg/mL | > 256 µg/mL | – |
| Fc1ccc2[nH]c(-c3ccccc3)cc2c1 [Compound 22] | – | – | – | – | > 256 µg/mL | 256 µg/mL (≈ 1210 µM) | 256 µg/mL (≈ 1210 µM) | 8 µg/mL (≈ 37.9 µM) | 256 µg/mL (≈ 1210 µM) | 16 µg/mL (≈ 75.7 µM) | 32 µg/mL (≈ 151 µM) | – |
| Brc1ccc2cc(-c3ccccc3)[nH]c2c1 [Compound 23] | – | – | – | – | > 256 µg/mL | 8 µg/mL (≈ 29.4 µM) | 256 µg/mL (≈ 941 µM) | 256 µg/mL (≈ 941 µM) | 256 µg/mL (≈ 941 µM) | 256 µg/mL (≈ 941 µM) | 256 µg/mL (≈ 941 µM) | – |
| OC(Cn1cncn1)(Cn1cncn1)c1ccc(F)cc1F [Fluconazole, fluconazole, reference compound] | – | – | – | – | > 128 µg/mL | – | 2 µg/mL (≈ 6.53 µM) | 2 µg/mL (≈ 6.53 µM) | 2 µg/mL (≈ 6.53 µM) | – | – | MIC ([6]; CA10, fluconazole alone, read-out: MIC of azole (fluconazole) used separately): > 128 µg/mL |
